In paper PMC6978637 (Saudi Pharmaceutical Journal : SPJ, 2019):
Where two headings read alike, the source gives them in different places.

What was measured:
FGFR1 [1] = target: FGFR1 (Homo sapiens, UniProt P11362); test: Z'-LYTE kinase enzyme inhibition assay, FGFR1; format: biochemical; conditions: FGFR1-IC50
FGFR1 [2] = test: Z'-LYTE kinase enzyme inhibition assay, FGFR1; format: biochemical; conditions: for FGFR selectivity (in words): among FGFR1-4; for FGFR1-SI: selectivity index IC50/IC50, lowest IC50 of the compound = 1
FGFR2 [3] = target: FGFR2 (Homo sapiens, UniProt P21802); test: biochemical; conditions: FGFR2-IC50
FGFR2 [4] = test: biochemical; conditions: for FGFR selectivity (in words): among FGFR1-4
FGFR3 [5] = target: FGFR3 (Homo sapiens, UniProt P22607); test: biochemical; format: biochemical; conditions: FGFR3-IC50
FGFR3 [6] = test: biochemical; format: biochemical
FGFR4 = FGFR4 (Homo sapiens, UniProt P22455); test: biochemical; format: biochemical
WST-1 cytotoxicity assay = format: cell-based, mouse; conditions: mouse, NIH-3T3 cells (mouse embryonic fibroblasts)
NIH-3T3 cells = test: WST-1 cytotoxicity assay; format: cell-based, mouse; conditions: Mus musculus, NIH3T3, 48 h, read-out: NIH-3T3 Cells IC50
[7] = selectivity index IC50/IC50, lowest IC50 of the compound = 1

Sequence of FGFR2 (Homo sapiens, UniProt P21802) (P21802 22-821): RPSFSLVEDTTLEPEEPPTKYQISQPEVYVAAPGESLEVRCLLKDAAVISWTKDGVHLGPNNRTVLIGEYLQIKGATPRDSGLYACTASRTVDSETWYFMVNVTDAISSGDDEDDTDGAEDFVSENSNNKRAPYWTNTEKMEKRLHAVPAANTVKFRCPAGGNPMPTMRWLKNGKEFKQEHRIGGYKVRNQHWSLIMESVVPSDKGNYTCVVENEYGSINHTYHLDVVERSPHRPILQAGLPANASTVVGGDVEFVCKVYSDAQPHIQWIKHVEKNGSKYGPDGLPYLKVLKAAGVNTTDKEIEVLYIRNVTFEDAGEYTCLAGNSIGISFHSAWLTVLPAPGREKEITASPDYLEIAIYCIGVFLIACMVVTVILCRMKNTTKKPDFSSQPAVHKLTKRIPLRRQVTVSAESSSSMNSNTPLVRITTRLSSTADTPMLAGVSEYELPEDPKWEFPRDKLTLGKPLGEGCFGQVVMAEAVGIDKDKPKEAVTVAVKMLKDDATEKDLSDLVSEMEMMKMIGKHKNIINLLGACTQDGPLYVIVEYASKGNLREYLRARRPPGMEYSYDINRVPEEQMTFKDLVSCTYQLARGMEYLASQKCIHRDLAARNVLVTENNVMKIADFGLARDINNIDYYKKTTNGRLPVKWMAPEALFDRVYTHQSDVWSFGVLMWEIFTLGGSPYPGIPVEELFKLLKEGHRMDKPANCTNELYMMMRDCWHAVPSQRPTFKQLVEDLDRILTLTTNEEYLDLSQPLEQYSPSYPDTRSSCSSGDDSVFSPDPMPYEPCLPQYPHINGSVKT
Sequence of FGFR1 (Homo sapiens, UniProt P11362) (P11362 22-822): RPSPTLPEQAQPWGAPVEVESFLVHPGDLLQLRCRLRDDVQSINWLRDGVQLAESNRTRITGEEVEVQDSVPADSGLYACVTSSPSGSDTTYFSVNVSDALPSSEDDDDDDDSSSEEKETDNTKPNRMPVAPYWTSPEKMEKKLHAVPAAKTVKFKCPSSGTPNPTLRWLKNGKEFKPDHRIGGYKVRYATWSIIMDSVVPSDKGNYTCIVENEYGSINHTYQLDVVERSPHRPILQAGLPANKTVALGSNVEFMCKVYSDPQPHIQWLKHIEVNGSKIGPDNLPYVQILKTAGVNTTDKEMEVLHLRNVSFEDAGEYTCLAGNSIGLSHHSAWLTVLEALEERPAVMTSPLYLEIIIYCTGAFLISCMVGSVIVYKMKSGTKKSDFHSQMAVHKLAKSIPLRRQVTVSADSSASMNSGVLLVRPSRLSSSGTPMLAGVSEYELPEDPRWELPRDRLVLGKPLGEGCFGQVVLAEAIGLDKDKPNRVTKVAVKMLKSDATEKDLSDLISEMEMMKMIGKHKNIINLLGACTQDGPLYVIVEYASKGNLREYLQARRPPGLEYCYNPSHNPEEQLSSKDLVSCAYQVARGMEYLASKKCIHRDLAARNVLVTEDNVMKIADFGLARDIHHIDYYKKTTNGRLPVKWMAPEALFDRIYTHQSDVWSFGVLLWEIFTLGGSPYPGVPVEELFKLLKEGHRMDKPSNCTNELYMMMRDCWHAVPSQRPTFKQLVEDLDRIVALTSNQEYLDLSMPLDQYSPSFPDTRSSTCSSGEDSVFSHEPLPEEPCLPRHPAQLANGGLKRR
Sequence of FGFR3 (Homo sapiens, UniProt P22607) (P22607 23-806): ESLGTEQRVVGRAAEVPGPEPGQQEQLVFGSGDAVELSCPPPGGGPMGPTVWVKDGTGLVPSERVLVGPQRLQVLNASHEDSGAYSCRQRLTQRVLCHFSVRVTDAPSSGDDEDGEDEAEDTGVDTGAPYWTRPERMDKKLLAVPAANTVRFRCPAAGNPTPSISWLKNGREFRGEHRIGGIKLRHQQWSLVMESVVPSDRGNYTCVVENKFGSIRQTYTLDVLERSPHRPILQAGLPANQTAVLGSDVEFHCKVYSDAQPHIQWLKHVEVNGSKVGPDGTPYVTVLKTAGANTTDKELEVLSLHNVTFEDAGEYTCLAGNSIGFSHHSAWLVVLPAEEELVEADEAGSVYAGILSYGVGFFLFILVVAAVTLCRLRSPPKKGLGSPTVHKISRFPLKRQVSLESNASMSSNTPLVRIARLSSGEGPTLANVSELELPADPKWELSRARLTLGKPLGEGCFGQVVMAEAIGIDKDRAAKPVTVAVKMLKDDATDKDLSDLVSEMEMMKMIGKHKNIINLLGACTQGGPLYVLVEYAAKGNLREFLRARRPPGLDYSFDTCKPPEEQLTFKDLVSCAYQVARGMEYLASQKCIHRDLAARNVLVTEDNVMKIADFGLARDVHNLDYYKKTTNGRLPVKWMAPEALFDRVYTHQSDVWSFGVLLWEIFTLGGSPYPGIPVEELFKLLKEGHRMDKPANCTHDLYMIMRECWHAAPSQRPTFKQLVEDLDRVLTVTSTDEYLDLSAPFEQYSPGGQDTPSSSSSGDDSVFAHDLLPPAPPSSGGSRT
Sequence of FGFR4 (P22455 22-802): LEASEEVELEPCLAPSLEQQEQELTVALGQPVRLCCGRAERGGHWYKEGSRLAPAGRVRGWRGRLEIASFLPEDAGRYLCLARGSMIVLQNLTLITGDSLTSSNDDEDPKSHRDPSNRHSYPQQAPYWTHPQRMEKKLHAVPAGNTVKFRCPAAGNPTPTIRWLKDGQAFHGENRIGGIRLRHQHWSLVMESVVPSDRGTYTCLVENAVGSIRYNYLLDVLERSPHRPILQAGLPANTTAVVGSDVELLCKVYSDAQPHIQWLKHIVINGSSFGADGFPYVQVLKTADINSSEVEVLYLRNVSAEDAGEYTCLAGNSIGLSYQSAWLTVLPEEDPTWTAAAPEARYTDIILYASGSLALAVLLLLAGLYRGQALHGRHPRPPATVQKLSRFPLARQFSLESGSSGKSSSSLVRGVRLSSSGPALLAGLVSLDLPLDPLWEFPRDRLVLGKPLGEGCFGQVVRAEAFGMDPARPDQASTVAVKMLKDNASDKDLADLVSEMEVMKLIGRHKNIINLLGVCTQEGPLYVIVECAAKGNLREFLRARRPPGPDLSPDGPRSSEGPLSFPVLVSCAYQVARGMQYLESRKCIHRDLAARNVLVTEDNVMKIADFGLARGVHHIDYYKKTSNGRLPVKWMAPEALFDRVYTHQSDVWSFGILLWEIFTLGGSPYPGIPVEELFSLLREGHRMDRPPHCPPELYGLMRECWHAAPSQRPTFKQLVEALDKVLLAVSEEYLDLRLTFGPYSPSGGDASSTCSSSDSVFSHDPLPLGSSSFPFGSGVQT

Compound	IC50 (FGFR1 [1]) [µM]	FGFR selectivity (in words) (FGFR1 [2])	FGFR1-SI (FGFR1 [2])	IC50 (FGFR2 [3]) [µM]	FGFR2-SI (FGFR2 [4])	IC50 (FGFR3 [5]) [µM]	FGFR3-SI (FGFR3 [6])	FGFR4-SI (FGFR4)	IC50 (FGFR4) [µM]	IC50 at 48 h (WST-1 cytotoxicity assay) [µM]	IC50 (NIH-3T3 cells) [µM]	better inhibitory potency against FGFR2 than FGFR1 (FGFR1 [2]; FGFR1 in compare to FGFR2) [fold]	FGFR selectivity (in words) (FGFR2 [4])	FGFR2-SI (FGFR2 [4]; [7])	better inhibitory potency against FGFR2 than FGFR3 (FGFR3 [6]; FGFR3 in compare to FGFR2) [fold]	better inhibitory potency against FGFR2 than FGFR4 (FGFR4; FGFR4 in compare to FGFR2) [fold]	FGFR selectivity (in words) (FGFR3 [6]; among FGFR1-4)	FGFR3-SI (FGFR3 [6]; [7])
CN1CCN(c2ccc(/C=C3/C(=O)Nc4ccc(-c5ccc6cc(O)ccc6c5)cc43)cc2)CC1 [Compound A13, (E)-5-(6-hydroxynaphthalen-2-yl)-3-[4-(4-methylpiperazin-1-yl)benzylidene]indolin-2-one]	0.007 ± 0.000206	selectivity to FGFR1	1	1.02 ± 0.0673	146.083	17.1 ± 0.294	2442.824	1285.449	8.99 ± 0.314	> 1	30.1 ± 3.23	–	–	–	–	–	–	–
O=C1Nc2ccc(-c3ccc4cc(O)ccc4c3)cc2/C1=C\c1ccc(N2CCOCC2)cc1 [Compound A1, (E)-5-(6-hydroxynaphthalen-2-yl)-3-(4-morpholinobenzylidene)indolin-2-one]	0.0198 ± 0.00332	–	3.333	0.00595	–	1.42 ± 0.423	238.648	6247.898	37.1 ± 0.965	–	1.58 ± 0.171	3.3	for FGFR2	1	238.6	6247.9	–	–
O=CN1CCN(c2ccc(/C=C3/C(=O)Nc4ccc(-c5ccc(C(=O)N6CCOCC6)cc5)cc43)cc2)CC1 [Compound A27, (E)-4-{4-{ {5-[4-(morpholine-4-carbonyl)phenyl]-2-oxoindolin-3-ylidene}methyl}phenyl}piperazine-1-carbaldehyde]	0.012 ± 0.000736	–	1	–	–	0.131 ± 0.00423	10.962	–	9.24 ± 0.265	> 1	1.23 ± 0.467	–	–	–	–	–	–	–
O=C1Nc2ccc(-c3ccc(-c4ccc(O)cc4)cc3)cc2/C1=C\c1ccc(N2CCOCC2)cc1 [Compound A2, (E)-5-(4'-hydroxy-[1,1'-biphenyl]-4-yl)-3-(4-morpholinobenzylidene)indolin-2-one]	0.219 ± 0.00432	–	25.948	0.00844 ± 0.000237	–	3.46 ± 0.51	409.791	2514.228	21.2 ± 0.351	–	0.949 ± 0.0247	–	for FGFR2	1	–	–	–	–
CN1CCN(C(=O)c2ccc(-c3ccc4c(c3)/C(=C\c3ccc(N5CCN(C)CC5)cc3)C(=O)N4)cc2)CC1 [Compound A17, (E)-3-[4-(4-methylpiperazin-1-yl)benzylidene]-5-[4-(4-methylpiperazine-1-carbonyl)phenyl]indolin-2-one]	0.8198 ± 0.00363	–	61.547	–	–	0.0133 ± 0.00293	–	542.643	7.23 ± 0.288	–	4.7 ± 0.105	–	–	–	–	–	for FGFR3	1
O=C1Nc2ccc(-c3ccc(C(=O)N4CCCCC4)cc3)cc2/C1=C\c1ccc(N2CCOCC2)cc1 [Compound A4, (E)-3-(4-morpholinobenzylidene)-5-[4-(piperidine-1-carbonyl)phenyl]indolin-2-one]	0.107 ± 0.00384	selectivity to FGFR1 and FGFR3	1	–	–	0.195 ± 0.00561	1.819	141.176	15.1 ± 0.313	–	0.4 ± 0.1	–	–	–	–	–	–	–
